The term inhibition denotes the drop in the measured response relative to a control, in per cent.

Active and inactive are the calls of the source. The rule behind the calls is not given here.

In data set [1] the test system is BV-2. The data set is described as follows: Anti-neuroinflammatory activity in mouse BV-2 cells assessed as inhibition of LPS-induced NO production at 0.5 uM preincubated for 30 mins followed by LPS stimulation and measured after 24 hrs by Griess reagent based assay relative to control. Type of data set: functional. The settings on record: time 24.5 hrs. For orientation: Griess reagent forms a coloured azo dye with nitrite.

Data set [2] can be described thus: Metal chelating activity assessed as Zn2+-compound complex formation by measuring increase in absorbance incubated for 2 hrs in the presence of ZnCl2 by UV-Vis spectra analysis.
The nature of data set [3]: Metal chelating activity assessed as Al3+-compound complex formation by measuring increase in absorbance incubated for 2 hrs in the presence of AlCl3 by UV-Vis spectra analysis.
The subject of data set [4] is Mus musculus. Put plainly: Anti-parkinson's disease activity in MPTP-induced C57BL/6C mouse model assessed as reduction in beam walking test time at 53.5 mg/kg, IG preadministered with MPTP for 5 days followed by compound administration for 3 weeks and measured 1 hrs post last dose by beam-walking test. It is filed as functional, organism-based.
Data set [5] is described as follows: Metal chelating activity assessed as Fe2+-compound complex formation by measuring increase in absorbance incubated for 2 hrs in the presence of FeSO4 at 30 to 900 uM by UV-Vis spectra analysis.
Data set [6] relates to Mus musculus. Put plainly: Anti-parkinson's disease activity in MPTP-induced C57BL/6C mouse model assessed as increase in traction test score at 53.5 mg/kg, IG preadministered with MPTP for 5 days followed by compound administration for 3 weeks and measured 1 hrs post last dose by traction test. It is filed as functional, organism-based.
In data set [7] the test system is BV-2. Put plainly: Inhibition of LPS-induced NFkappaB activation in mouse BV-2 cells assessed as inhibition of p65 translocation to nucleus at 1 to 10 uM preincubated for 30 mins followed by LPS-stimulation and measured after 16 hrs by Western blot analysis. It is filed as cell-based. The conditions noted are these: dose 1-10 µM, time 16.5 hrs. (In general: A western blot detects proteins with antibodies after separation by electrophoresis.)

Data set [8] can be described thus: Metal chelating activity assessed as Fe3+-compound complex formation by measuring increase in absorbance incubated for 2 hrs in the presence of FeCl3 by UV-Vis spectra analysis.
Data set [9] has as its system PC-12. Put plainly: Neuroprotective activity against H2O2-induced cell damage in rat PC-12 cells assessed as increase in cell viability at 2.5 uM preincubated for 2 hrs followed by H2O2 addition and measured after 24 hrs by MTT assay (reference value: 50.3%). The conditions noted are these: time 26 hrs. It is filed as functional.
In data set [10] the test system is BV-2. The data set is described as follows: Anti-neuroinflammatory activity in mouse BV-2 cells assessed as inhibition of LPS-induced NO production at 10 uM preincubated for 30 mins followed by LPS stimulation and measured after 24 hrs by Griess reagent based assay relative to control. It is filed as functional. The conditions noted are these: time 24.5 hrs.
Data set [11] relates to BV-2. Put plainly: Anti-neuroinflammatory activity in mouse BV-2 cells assessed as inhibition of LPS-induced TNF-alpha production at 10 uM preincubated for 30 mins followed by LPS stimulation and measured after 24 hrs by ELISA analysis relative to control. It is filed as functional. The conditions noted are these: time 24.5 hrs.
The subject of data set [12] is BV-2. Put plainly: Cytotoxicity against mouse BV-2 cells assessed as reduction in cell viability upto 10 uM incubated for 30 mins by MTT assay. Type of data set: toxicity, cell-based. The settings on record: bv-2, 0.5 h. (In general: Tetrazolium dyes change colour on reduction, which living cells bring about.)
In data set [13] the test system is BV-2. Put plainly: Anti-neuroinflammatory activity in mouse BV-2 cells assessed as inhibition of LPS-induced NO production at 2.5 uM preincubated for 30 mins followed by LPS stimulation and measured after 24 hrs by Griess reagent based assay relative to control. The settings on record: time 24.5 hrs. Type of data set: functional.

Consider `Oc1cc(OCc2ccc(F)cc2)ccc1CNc1ccccc1`, for which the inhibition at 0.5 µM in data set [1] was found to be 13.5%. The result in [2], in data set [3], in data set [4], in data set [5], in data set [6] and in data set [8] was Active. Moreover, the inhibition entry in [7] was “Active”. Further, the values for the Activity in data set [9] and in data set [12] were 59.8% and “Non-Toxic”, respectively. Further, the inhibition at 10 µM came out at 76.1% in [10] and 63.9% in data set [11]. In addition, the inhibition at 2.5 µM in [13] stood at 28%.

These data come from ChEMBL document CHEMBL5331103, “Discovery of novel 2-hydroxyl-4-benzyloxybenzyl aniline derivatives as potential multifunctional agents for the treatment of Parkinson's disease” (Eur J Med Chem, 2023).
